Test results from patent publication US20220324815A1, “2-PHENOXY-PYRIMIDINE DERIVATIVES AS HERBICIDAL COMPOUNDS” (SYNGENTA CROP PROTECTION AG, priority 2019, published 2022).

Key:
Assay type in all cases: in vivo
Settings in all cases: 250 g/ha unless otherwise stated, evaluated after 13 days, five-point scale
[1] = system: Ipomoea hederacea (IPOHE); assay: Test 1 glasshouse herbicide test, post-emergence application (Table B1)
How it was run: (§1)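 Pots sown in standard soil; sprayed 1 day (pre-emergence) or 8 days (post-emergence) after sowing at 250 g/ha unless stated, in acetone/water (50:50) with 0.5% Tween 20. Glasshouse 24/16 °C, 14 h light, 65% humidity; damage scored at 13 days on a 1–5 scale (5=81–100%, 1=0–20%).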

Lolium perenne (LOLPE) [2] = assay: as above
How it was run: as §1

[3] = system: Echinochloa crus-galli (ECHCG); assay: as above
How it was run: as §1

Setaria faberi (SETFA) [4] = assay: as above
How it was run: as §1

[5] = system: Amaranthus retoflexus (AMARE); assay: as above
How it was run: as §1

Solanum nigrum (SOLNI) [6] = assay: as above
How it was run: as §1

[7] = system: Ipomoea hederacea (IPOHE); assay: Test 1 glasshouse herbicide test, pre-emergence application (Table B2)
How it was run: as §1

Lolium perenne (LOLPE) [8] = assay: as above
How it was run: as §1

[9] = system: Echinochloa crus-galli (ECHCG); assay: as above
How it was run: as §1

Setaria faberi (SETFA) [10] = assay: as above
How it was run: as §1

[11] = system: Amaranthus retoflexus (AMARE); assay: as above
How it was run: as §1

Solanum nigrum (SOLNI) [12] = assay: as above
How it was run: as §1

SMILES | % phytotoxicity IPOHE, post-emergence application [1] | % phytotoxicity LOLPE, post-emergence application (Lolium perenne (LOLPE) [2]) | % phytotoxicity ECHCG, post-emergence application [3] | % phytotoxicity SETFA, post-emergence application (Setaria faberi (SETFA) [4]) | % phytotoxicity AMARE, post-emergence application [5] | % phytotoxicity SOLNI, post-emergence application (Solanum nigrum (SOLNI) [6]) | % phytotoxicity IPOHE, pre-emergence application [7] | % phytotoxicity LOLPE, pre-emergence application (Lolium perenne (LOLPE) [8]) | % phytotoxicity ECHCG, pre-emergence application [9] | % phytotoxicity SETFA, pre-emergence application (Setaria faberi (SETFA) [10]) | % phytotoxicity AMARE, pre-emergence application [11] | % phytotoxicity SOLNI, pre-emergence application (Solanum nigrum (SOLNI) [12])
[O-][S+](CCC(F)(F)F)c1c(Cl)cccc1Oc1ncc(Cl)cn1 (stereo not drawn) [Compound A11] | 5 (5=81 to 100%) | 4 (4=61 to 80%) | 5 (5=81 to 100%) | 5 (5=81 to 100%) | 5 (5=81 to 100%) | 5 (5=81 to 100%) | 5 (5=81 to 100%) | 5 (5=81 to 100%) | 5 (5=81 to 100%) | 5 (5=81 to 100%) | 5 (5=81 to 100%) | 5 (5=81 to 100%)
O=S(=O)(CCC(F)(F)F)c1c(Cl)cccc1Oc1ncc(Cl)cn1 [Compound A12] | 4 (4=61 to 80%) | 5 (5=81 to 100%) | 5 (5=81 to 100%) | 5 (5=81 to 100%) | 5 (5=81 to 100%) | 5 (5=81 to 100%) | 5 (5=81 to 100%) | 5 (5=81 to 100%) | 5 (5=81 to 100%) | 5 (5=81 to 100%) | 5 (5=81 to 100%) | 5 (5=81 to 100%)
N#Cc1cccc(Oc2ncc(Cl)cn2)c1SCCC(F)(F)F [Compound A13] | 4 (4=61 to 80%) | 5 (5=81 to 100%) | 5 (5=81 to 100%) | 5 (5=81 to 100%) | 5 (5=81 to 100%) | 5 (5=81 to 100%) | 4 (4=61 to 80%) | 5 (5=81 to 100%) | 5 (5=81 to 100%) | 5 (5=81 to 100%) | 5 (5=81 to 100%) | 5 (5=81 to 100%)
N#Cc1cccc(Oc2ncc(Cl)cn2)c1[S+]([O-])CCC(F)(F)F (stereo not drawn) [Compound A14] | 5 (5=81 to 100%) | 4 (4=61 to 80%) | 5 (5=81 to 100%) | 5 (5=81 to 100%) | 5 (5=81 to 100%) | 5 (5=81 to 100%) | 5 (5=81 to 100%) | 3 (3=41 to 60%) | 5 (5=81 to 100%) | 5 (5=81 to 100%) | 5 (5=81 to 100%) | 5 (5=81 to 100%)
N#Cc1cccc(Oc2ncc(Cl)cn2)c1S(=O)(=O)CCC(F)(F)F [Compound A15] | 5 (5=81 to 100%) | 4 (4=61 to 80%) | 5 (5=81 to 100%) | 5 (5=81 to 100%) | 5 (5=81 to 100%) | 5 (5=81 to 100%) | 5 (5=81 to 100%) | 5 (5=81 to 100%) | 5 (5=81 to 100%) | 5 (5=81 to 100%) | 5 (5=81 to 100%) | 5 (5=81 to 100%)
Clc1cnc(Oc2ccccc2SCc2ccccc2)nc1 [Compound A16] | 1 (1=0 to 20%) | 1 (1=0 to 20%) | 1 (1=0 to 20%) | 2 (2=21 to 40%) | 4 (4=61 to 80%) | 3 (3=41 to 60%) | 1 (1=0 to 20%) | 1 (1=0 to 20%) | 2 (2=21 to 40%) | 2 (2=21 to 40%) | 4 (4=61 to 80%) | 1 (1=0 to 20%)
O=S(=O)(CCCC(F)(F)F)c1c(Cl)cccc1Oc1ncc(Cl)cn1 [Compound A24] | 5 (5=81 to 100%) | 5 (5=81 to 100%) | 5 (5=81 to 100%) | 5 (5=81 to 100%) | 5 (5=81 to 100%) | 5 (5=81 to 100%) | 5 (5=81 to 100%) | 4 (4=61 to 80%) | 5 (5=81 to 100%) | 5 (5=81 to 100%) | 5 (5=81 to 100%) | 5 (5=81 to 100%)
FC(F)(F)CCCSc1c(Cl)cccc1Oc1ncc(Cl)cn1 [Compound A25] | 3 (3=41 to 60%) | 5 (5=81 to 100%) | 5 (5=81 to 100%) | 5 (5=81 to 100%) | 5 (5=81 to 100%) | 5 (5=81 to 100%) | 1 (1=0 to 20%) | 5 (5=81 to 100%) | 5 (5=81 to 100%) | 5 (5=81 to 100%) | 5 (5=81 to 100%) | 5 (5=81 to 100%)
[O-][S+](CCCC(F)(F)F)c1c(Cl)cccc1Oc1ncc(Cl)cn1 (stereo not drawn) [Compound A26] | 5 (5=81 to 100%) | 5 (5=81 to 100%) | 5 (5=81 to 100%) | 5 (5=81 to 100%) | 5 (5=81 to 100%) | 5 (5=81 to 100%) | 5 (5=81 to 100%) | 5 (5=81 to 100%) | 5 (5=81 to 100%) | 5 (5=81 to 100%) | 5 (5=81 to 100%) | 5 (5=81 to 100%)
Clc1ccc(CSc2ccccc2Oc2ncc(Cl)cn2)cc1 [Compound A27] | 2 (2=21 to 40%) | 1 (1=0 to 20%) | 2 (2=21 to 40%) | 2 (2=21 to 40%) | 5 (5=81 to 100%) | 3 (3=41 to 60%) | 1 (1=0 to 20%) | 1 (1=0 to 20%) | 4 (4=61 to 80%) | 4 (4=61 to 80%) | 5 (5=81 to 100%) | 2 (2=21 to 40%)
